Reference: ChEMBL document CHEMBL1201862, “PubChem BioAssay data set” (2004)
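Following 48 hours of exposure in 96-well plates, responses at five concentrations were used to interpolate endpoints linearly. Abbreviation: GI50, concentration required for 50% inhibition of growth.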 Activity calls are given as the source filed them. Rule as the data show it: active = GI50 up to about 1.1 µM and inactive = higher. Residues, ends and D or L forms follow the SMILES beside them. *: point of attachment. Boc = CC(C)(C)OC(=O)*; OBn = c1ccc(CO*)cc1

Tests used:
Assay in all cases: NCI tumour cell line growth inhibition, 48 h
SN12C = test system: SN12C
NCI-H460 = test system: NCI-H460
SNB-19 = test system: SNB-19
UACC-62 = test system: UACC-62
SK-MEL-5 = test system: SK-MEL-5
MDA-MB-231 = test system: MDA-MB-231
SK-OV-3 = test system: SK-OV-3
HOP-92 = test system: HOP-92
UACC-257 = test system: UACC-257
U-251 = test system: U-251
HCC 2998 = test system: HCC 2998
UO-31 = test system: UO-31
A498 = test system: A498
ACHN = test system: ACHN
MCF7 = test system: MCF7
EKVX = test system: EKVX
SF-268 = test system: SF-268
SNB-75 = test system: SNB-75
IGROV-1 = test system: IGROV-1
HT-29 = test system: HT-29

Row | SMILES | GI50 (SN12C) | GI50 (NCI-H460) | GI50 (SNB-19) | GI50 (UACC-62) | GI50 (SK-MEL-5) | GI50 (MDA-MB-231) | GI50 (SK-OV-3) | GI50 (HOP-92) | GI50 (UACC-257) | GI50 (U-251) | GI50 (HCC 2998) | GI50 (UO-31) | GI50 (A498) | GI50 (ACHN) | GI50 (MCF7) | GI50 (EKVX) | GI50 (SF-268) | GI50 (SNB-75) | GI50 (IGROV-1) | GI50 (HT-29)
1 | CC1=CC[C@@H]2[C@@H](CC[C@@]2(C)O)C(C)(C)[C@H]1CC[C@@H]1[C@@]2(C)CC[C@@H](O)C(C)(C)O[C@@H]2CC[C@]1(C)O | 24.9 µM (inactive) | 17.7 µM (inactive) | 14.2 µM (inactive) | 15.5 µM (inactive) | 13.3 µM (inactive) | 17.5 µM (inactive) | 35.9 µM (inactive) | 12.5 µM (inactive) | 25.6 µM (inactive) | 17.1 µM (inactive) | 17.5 µM (inactive) | 17 µM (inactive) | 15 µM (inactive) | 23.2 µM (inactive) | 31 µM (inactive) | – | – | – | – | –
2 | CC1=C(C(N)=O)C(c2ccncc2)C(C#N)C(=O)N1 (centres undefined) | – | > 100 µM (inactive) | > 100 µM (inactive) | > 100 µM (inactive) | > 100 µM (inactive) | > 100 µM (inactive) | > 100 µM (inactive) | > 100 µM (inactive) | > 100 µM (inactive) | > 100 µM (inactive) | > 100 µM (inactive) | > 100 µM (inactive) | > 100 µM (inactive) | > 100 µM (inactive) | > 100 µM (inactive) | > 100 µM (inactive) | > 100 µM (inactive) | > 100 µM (inactive) | > 100 µM (inactive) | –
3 | CC1CC(NN(C)C)C2(C(N)=O)C(N)=NC(=O)C12C#N (centres undefined) | > 100 µM (inactive) | – | > 100 µM (inactive) | > 100 µM (inactive) | > 100 µM (inactive) | > 100 µM (inactive) | > 100 µM (inactive) | > 100 µM (inactive) | > 100 µM (inactive) | > 100 µM (inactive) | > 100 µM (inactive) | > 100 µM (inactive) | > 100 µM (inactive) | > 100 µM (inactive) | > 100 µM (inactive) | > 100 µM (inactive) | > 100 µM (inactive) | 10 µM (inactive) | > 100 µM (inactive) | > 100 µM (inactive)
4 | CCOC(=O)c1sc2c(c1OC(=O)c1cc(OC)c(OC)c(OC)c1)c(=O)n(-c1ccccc1)c(=S)n2-c1ccccc1 | 90.2 µM (inactive) | 51.5 µM (inactive) | > 100 µM (inactive) | 51.8 µM (inactive) | > 100 µM (inactive) | 56.6 µM (inactive) | > 100 µM (inactive) | 22.2 µM (inactive) | > 100 µM (inactive) | 49.8 µM (inactive) | 81.3 µM (inactive) | – | > 100 µM (inactive) | > 100 µM (inactive) | > 100 µM (inactive) | 45.5 µM (inactive) | > 100 µM (inactive) | > 100 µM (inactive) | > 100 µM (inactive) | 98.9 µM (inactive)
5 | CC1(C)N=[N+]([O-])C1(C)C | > 100 µM (inactive) | > 100 µM (inactive) | > 100 µM (inactive) | > 100 µM (inactive) | > 100 µM (inactive) | > 100 µM (inactive) | > 100 µM (inactive) | – | > 100 µM (inactive) | > 100 µM (inactive) | > 100 µM (inactive) | > 100 µM (inactive) | > 100 µM (inactive) | – | > 100 µM (inactive) | > 100 µM (inactive) | > 100 µM (inactive) | > 100 µM (inactive) | > 100 µM (inactive) | > 100 µM (inactive)
6 | CC(C)(C)OC(=O)n1c(-c2ccccc2F)cc(=O)c2cc3c(cc21)OCO3 | – | 0.0656 µM (active) | 0.145 µM (active) | 0.0588 µM (active) | 0.0521 µM (active) | 3.68 µM (inactive) | 0.12 µM (active) | 7.24 µM (inactive) | – | 0.0476 µM (active) | 0.0715 µM (active) | 0.188 µM (active) | 0.141 µM (active) | 0.186 µM (active) | 0.0413 µM (active) | – | 0.191 µM (active) | 0.0318 µM (active) | – | 0.0497 µM (active)
7 | CNC(=S)NN=C1NCCCN1 | – | > 100 µM (inactive) | > 100 µM (inactive) | > 100 µM (inactive) | > 100 µM (inactive) | > 100 µM (inactive) | > 100 µM (inactive) | > 100 µM (inactive) | > 100 µM (inactive) | > 100 µM (inactive) | > 100 µM (inactive) | > 100 µM (inactive) | > 100 µM (inactive) | > 100 µM (inactive) | > 100 µM (inactive) | > 100 µM (inactive) | > 100 µM (inactive) | > 100 µM (inactive) | > 100 µM (inactive) | > 100 µM (inactive)
8 | CN(C)/C=C/c1ccncc1 | > 100 µM (inactive) | > 100 µM (inactive) | > 100 µM (inactive) | > 100 µM (inactive) | > 100 µM (inactive) | > 100 µM (inactive) | > 100 µM (inactive) | > 100 µM (inactive) | > 100 µM (inactive) | > 100 µM (inactive) | > 100 µM (inactive) | > 100 µM (inactive) | > 100 µM (inactive) | > 100 µM (inactive) | > 100 µM (inactive) | > 100 µM (inactive) | > 100 µM (inactive) | – | > 100 µM (inactive) | > 100 µM (inactive)
9 | c1n[nH]cc1C12C3C4C5C3C1C5C42 (centres undefined) | > 100 µM (inactive) | – | > 100 µM (inactive) | > 100 µM (inactive) | > 100 µM (inactive) | > 100 µM (inactive) | > 100 µM (inactive) | 65.6 µM (inactive) | > 100 µM (inactive) | > 100 µM (inactive) | > 100 µM (inactive) | > 100 µM (inactive) | > 100 µM (inactive) | > 100 µM (inactive) | > 100 µM (inactive) | 85.7 µM (inactive) | > 100 µM (inactive) | 69.2 µM (inactive) | > 100 µM (inactive) | > 100 µM (inactive)
10 | Cc1ccc(-c2nnc(CCCCCCCCc3nnc(-c4ccc(C)cc4O)n3N)n2N)c(O)c1 | > 100 µM (inactive) | > 100 µM (inactive) | 61.8 µM (inactive) | > 100 µM (inactive) | – | > 100 µM (inactive) | 39.2 µM (inactive) | 9.71 µM (inactive) | > 100 µM (inactive) | > 100 µM (inactive) | > 100 µM (inactive) | > 100 µM (inactive) | > 100 µM (inactive) | > 100 µM (inactive) | > 100 µM (inactive) | > 100 µM (inactive) | > 100 µM (inactive) | 33.9 µM (inactive) | > 100 µM (inactive) | –
11 | S=C1NC2=C(COC/C2=C\c2ccccc2Cl)C(c2ccccc2Cl)N1 (centres undefined) | 33 µM (inactive) | 18.8 µM (inactive) | 50.5 µM (inactive) | 65.3 µM (inactive) | 15.6 µM (inactive) | > 100 µM (inactive) | > 100 µM (inactive) | 36.4 µM (inactive) | 56 µM (inactive) | 25.1 µM (inactive) | 6.98 µM (inactive) | 19.5 µM (inactive) | 80 µM (inactive) | 34.4 µM (inactive) | 16.4 µM (inactive) | 33.2 µM (inactive) | 51.4 µM (inactive) | 49.5 µM (inactive) | 39.1 µM (inactive) | –
12 | CN(C)Cc1cc(/N=N/c2ccc(Cl)c(Cl)c2)ccc1O | 14.7 µM (inactive) | 6.35 µM (inactive) | 13.6 µM (inactive) | 5.96 µM (inactive) | 12.4 µM (inactive) | 5.15 µM (inactive) | – | 3.3 µM (inactive) | 16.8 µM (inactive) | 11.5 µM (inactive) | 12.1 µM (inactive) | 2.49 µM (inactive) | 11.1 µM (inactive) | 4.44 µM (inactive) | 4.46 µM (inactive) | 12.6 µM (inactive) | 3.61 µM (inactive) | 7.13 µM (inactive) | 3.4 µM (inactive) | 6.53 µM (inactive)
13 | CC(=O)c1sc(Nc2ccc(Cl)c(Cl)c2)nc1C | > 100 µM (inactive) | > 100 µM (inactive) | > 100 µM (inactive) | > 100 µM (inactive) | > 100 µM (inactive) | 21 µM (inactive) | > 100 µM (inactive) | – | 68.5 µM (inactive) | > 100 µM (inactive) | > 100 µM (inactive) | > 100 µM (inactive) | 32.4 µM (inactive) | 70.6 µM (inactive) | 37.9 µM (inactive) | 5.64 µM (inactive) | > 100 µM (inactive) | 54.1 µM (inactive) | > 100 µM (inactive) | 76.4 µM (inactive)
14 | N#Cc1c(N)nc2[nH]nc(N)c2c1-c1ccccc1 | 5.33 µM (inactive) | 4.28 µM (inactive) | 16.1 µM (inactive) | 2.72 µM (inactive) | 8.24 µM (inactive) | 4.48 µM (inactive) | 4.02 µM (inactive) | 2.56 µM (inactive) | 21.1 µM (inactive) | 21.2 µM (inactive) | 16.5 µM (inactive) | 3.56 µM (inactive) | 1.61 µM (inactive) | 4.63 µM (inactive) | 4.59 µM (inactive) | 7.74 µM (inactive) | 10.2 µM (inactive) | – | 2.8 µM (inactive) | 12.2 µM (inactive)
15 | CC(C)C(NC(=O)C(Cc1ccccc1)NC(=O)OC(C)(C)C)C(=O)NCC(=O)OCc1ccccc1 (stereo not drawn) (Boc-Phe-Val-Gly-OBn; configuration not given here) | 18 µM (inactive) | 18.8 µM (inactive) | 25.6 µM (inactive) | 16.9 µM (inactive) | – | 16.6 µM (inactive) | 13.4 µM (inactive) | – | 20.4 µM (inactive) | 17.6 µM (inactive) | 17.8 µM (inactive) | 21.7 µM (inactive) | 44.6 µM (inactive) | 17.5 µM (inactive) | > 10 µM (inactive) | 20.4 µM (inactive) | 14.7 µM (inactive) | 20.5 µM (inactive) | 14.7 µM (inactive) | 17.5 µM (inactive)
